The record followed here is article PMC5218480 (PLoS ONE, 2017).

SMILES strings stand for the structures.

This experiment deals with MV-4-11 cells. Nature of the experiment: Gene expression microarray analysis (Affymetrix PrimeView) and GSEA. The experiment is classed as cell-based, human. More on the design: RFU PODN (11730768_x_at) / Fold change /veh PODN (11730768_x_at) / RFU LINC00158 (11744669_a_at) / Fold change /veh LINC00158 (11744669_a_at) / RFU DUSP10 (11751237_a_at) / Fold change /veh DUSP10 (11751237_a_at) / RFU ID3 (11757404_x_at) / Fold change /veh ID3 (11757404_x_at) / RFU PLEKHG5 (11737974_s_at) / Fold change /veh PLEKHG5 (11737974_s_at) / RFU LRRC4B (11730491_at) / Fold change /veh LRRC4B (11730491_at) / RFU GIMAP4 (11747438_a_at) / Fold change /veh GIMAP4 (11747438_a_at) / RFU KRT8 (11758183_x_at) / Fold change /veh KRT8 (11758183_x_at) / RFU CNN1 (11734310_a_at) / Fold change /veh CNN1 (11734310_a_at) / RFU VPS37D (11726825_at) / Fold change /veh VPS37D (11726825_at) / RFU C10orf10 (11716522_x_at) / Fold change /veh C10orf10 (11716522_x_at) / RFU KIR2DL2 /// KIR2DL4 /// KIR2DL5A /// KIR2DL5B /// KIR2DS1 /// KIR2DS2 /// KIR2DS3 /// KIR2DS4 /// KIR3DL3 /// KIR3DL3 /// KIR3DS1 (11738374_at) / Fold change /veh KIR2DL2 /// KIR2DL4 /// KIR2DL5A /// KIR2DL5B /// KIR2DS1 /// KIR2DS2 /// KIR2DS3 /// KIR2DS4 /// KIR3DL3 /// KIR3DL3 /// KIR3DS1 (11738374_at) / RFU C1QL1 (11718748_at) / Fold change /veh C1QL1 (11718748_at) / RFU TMPRSS4 (11747572_a_at) / Fold change /veh TMPRSS4 (11747572_a_at) / RFU HAMP (11756126_x_at) / Fold change /veh HAMP (11756126_x_at) / RFU RNFT2 (11725882_a_at) / Fold change /veh RNFT2 (11725882_a_at) / RFU NR4A2 (11747474_a_at) / Fold change /veh NR4A2 (11747474_a_at) / RFU ABCC12 (11746883_a_at) / Fold change /veh ABCC12 (11746883_a_at) / RFU TMEM136 (11760407_x_at) / Fold change /veh TMEM136 (11760407_x_at) / RFU CLDN22 /// WWC2 (11732394_at) / Fold change /veh CLDN22 /// WWC2 (11732394_at) / RFU HLA-DPB1 (11760878_x_at) / Fold change /veh HLA-DPB1 (11760878_x_at) / RFU SPINT1 (11716480_a_at) / Fold change /veh SPINT1 (11716480_a_at) / RFU GAP43 (11754022_s_at) / Fold change /veh GAP43 (11754022_s_at) / RFU A4GNT (11735810_at) / Fold change /veh A4GNT (11735810_at) / RFU PRB3 (11715151_x_at) / Fold change /veh PRB3 (11715151_x_at) / RFU TUBB4B (11761932_at) / Fold change /veh TUBB4B (11761932_at) / RFU CAPN14 (11732068_a_at) / Fold change /veh CAPN14 (11732068_a_at) / RFU TMCC2 (11721928_a_at) / Fold change /veh TMCC2 (11721928_a_at) / RFU IRGQ (11745062_a_at) / Fold change /veh IRGQ (11745062_a_at) / RFU FAM174B (11720279_a_at) / Fold change /veh FAM174B (11720279_a_at) / RFU TMPRSS4 (11748680_a_at) / Fold change /veh TMPRSS4 (11748680_a_at) / RFU FAM212B (11763350_a_at) / Fold change /veh FAM212B (11763350_a_at) / RFU PLEKHG5 (11743358_a_at) / Fold change /veh PLEKHG5 (11743358_a_at) / RFU ZSCAN30 (11745921_a_at) / Fold change /veh ZSCAN30 (11745921_a_at) / RFU CMKLR1 (11741424_a_at) / Fold change /veh CMKLR1 (11741424_a_at) / RFU LOC101060620 /// MAPK8IP1 (11723275_at) / Fold change /veh LOC101060620 /// MAPK8IP1 (11723275_at) / RFU SPTSSB (11747773_x_at) / Fold change /veh SPTSSB (11747773_x_at) / RFU PRSS12 (11739890_at) / Fold change /veh PRSS12 (11739890_at) / RFU BIN1 (11741810_x_at) / Fold change /veh BIN1 (11741810_x_at) / RFU WNT11 (11732464_a_at) / Fold change /veh WNT11 (11732464_a_at) / RFU C10orf10 (11716521_a_at) / Fold change /veh C10orf10 (11716521_a_at) / RFU C5orf56 (11738089_at) / Fold change /veh C5orf56 (11738089_at) / RFU CYB561 (11721691_x_at) / Fold change /veh CYB561 (11721691_x_at) / RFU ANKRD19P (11752326_a_at) / Fold change /veh ANKRD19P (11752326_a_at) / RFU OR2T12 /// OR2T33 /// OR2T8 (11738714_s_at) / Fold change /veh OR2T12 /// OR2T33 /// OR2T8 (11738714_s_at) / RFU VCAN (11748164_a_at) / Fold change /veh VCAN (11748164_a_at) / RFU JSRP1 (11732532_at) / Fold change /veh JSRP1 (11732532_at) / RFU KRTAP10-11 (11738290_x_at) / Fold change /veh KRTAP10-11 (11738290_x_at) / RFU MYO3A (11730013_a_at) / Fold change /veh MYO3A (11730013_a_at) / RFU EBF3 (11725865_a_at) / Fold change /veh EBF3 (11725865_a_at) / RFU CAMK2N1 (11719241_x_at) / Fold change /veh CAMK2N1 (11719241_x_at) / RFU C5orf56 (11738088_a_at) / Fold change /veh C5orf56 (11738088_a_at) / RFU OLFML3 (11715873_a_at) / Fold change /veh OLFML3 (11715873_a_at) / RFU LOC100653217 /// NTM (11731650_a_at) / Fold change /veh LOC100653217 /// NTM (11731650_a_at) / RFU MAPK11 (11762145_a_at) / Fold change /veh MAPK11 (11762145_a_at) / RFU FIZ1 (11724087_x_at) / Fold change /veh FIZ1 (11724087_x_at) / RFU OASL (11726364_x_at) / Fold change /veh OASL (11726364_x_at) / RFU SOX15 (11748057_x_at) / Fold change /veh SOX15 (11748057_x_at) / RFU CD79A (11719716_a_at) / Fold change /veh CD79A (11719716_a_at) / RFU HIST1H1D (11736915_at) / Fold change /veh HIST1H1D (11736915_at) / RFU CASKIN2 (11723855_a_at) / Fold change /veh CASKIN2 (11723855_a_at) / RFU LOC730098 (11760151_x_at) / Fold change /veh LOC730098 (11760151_x_at) / RFU OR4N2 (11742367_at) / Fold change /veh OR4N2 (11742367_at) / RFU PRRT2 (11749266_a_at) / Fold change /veh PRRT2 (11749266_a_at) / RFU SNX32 (11753110_a_at) / Fold change /veh SNX32 (11753110_a_at) / RFU CDHR5 (11726645_a_at) / Fold change /veh CDHR5 (11726645_a_at) / RFU RCAN1 (11760418_a_at) / Fold change /veh RCAN1 (11760418_a_at) / RFU FAM167A (11723789_a_at) / Fold change /veh FAM167A (11723789_a_at) / RFU FAM26E (11764081_at) / Fold change /veh FAM26E (11764081_at) / RFU ISYNA1 (11749810_s_at) / Fold change /veh ISYNA1 (11749810_s_at) / RFU ACY1 (11761880_at) / Fold change /veh ACY1 (11761880_at) / RFU 11764098_at / Fold change /veh 11764098_at / RFU SAMD14 (11745864_x_at) / Fold change /veh SAMD14 (11745864_x_at) / RFU NPB (11741838_a_at) / Fold change /veh NPB (11741838_a_at) / RFU TMPRSS6 (11731388_a_at) / Fold change /veh TMPRSS6 (11731388_a_at) / RFU KRTAP10-2 (11738614_at) / Fold change /veh KRTAP10-2 (11738614_at) / RFU ARHGAP8 /// PRR5-ARHGAP8 (11727945_x_at) / Fold change /veh ARHGAP8 /// PRR5-ARHGAP8 (11727945_x_at) / RFU KRTAP5-7 /// NADSYN1 (11734609_at) / Fold change /veh KRTAP5-7 /// NADSYN1 (11734609_at) / RFU RASL12 (11751679_a_at) / Fold change /veh RASL12 (11751679_a_at) / RFU CDKN2B (11736163_a_at) / Fold change /veh CDKN2B (11736163_a_at) / RFU PRF1 (11729649_at) / Fold change /veh PRF1 (11729649_at) / RFU, ZNF638 /// ZNF638-IT1 / Fold change vs veh, ZNF638 /// ZNF638-IT1 / RFU, PANK3 / Fold change vs veh, PANK3 / RFU, SH3YL1 / Fold change vs veh, SH3YL1 / RFU, ZEB2 / Fold change vs veh, ZEB2 / RFU, NRIP1 / Fold change vs veh, NRIP1 / RFU, PTTG1IP / Fold change vs veh, PTTG1IP / RFU, CAPN2 / Fold change vs veh, CAPN2 / RFU, MED14 / Fold change vs veh, MED14 / RFU, SNORA58 / Fold change vs veh, SNORA58 / RFU, C1orf63 / Fold change vs veh, C1orf63 / RFU, LRRFIP1 / Fold change vs veh, LRRFIP1 / RFU, NDUFAF7 / Fold change vs veh, NDUFAF7 / RFU, SLC12A2 / Fold change vs veh, SLC12A2 / RFU, IBTK / Fold change vs veh, IBTK / RFU, ESF1 / Fold change vs veh, ESF1 / Fold change vs veh, TMEM50B / RFU, TAOK1 / Fold change vs veh, TAOK1 / RFU, ACBD3 / Fold change vs veh, ACBD3 / RFU, TMA16 / Fold change vs veh, TMA16 / RFU, RWDD3 / Fold change vs veh, RWDD3 / RFU, BCAT1 / Fold change vs veh, BCAT1 / RFU, EDEM3 / Fold change vs veh, EDEM3 / RFU, TMEM33 / Fold change vs veh, TMEM33 / RFU, WDR75 / Fold change vs veh, WDR75 / RFU, AHCTF1 / Fold change vs veh, AHCTF1 / RFU, TFRC / Fold change vs veh, TFRC / RFU, ZDHHC17 / Fold change vs veh, ZDHHC17 / RFU, NOM1 / Fold change vs veh, NOM1 / RFU, ARL8B / Fold change vs veh, ARL8B / RFU, ZBTB11 / Fold change vs veh, ZBTB11 / RFU, TAMM41 / Fold change vs veh, TAMM41 / RFU, KIAA1704 /// LOC100996395 / Fold change vs veh, KIAA1704 /// LOC100996395 / RFU, ING1 / Fold change vs veh, ING1 / RFU, TRMT61B / Fold change vs veh, TRMT61B / RFU, FUBP3 / Fold change vs veh, FUBP3 / RFU, TP53 / Fold change vs veh, TP53 / RFU, TNKS2 / Fold change vs veh, TNKS2 / RFU, ZFP14 / Fold change vs veh, ZFP14 / RFU, ACTR2 / Fold change vs veh, ACTR2 / RFU, PPP3R1 / Fold change vs veh, PPP3R1 / RFU, PIK3R1 / Fold change vs veh, PIK3R1 / RFU, HNRNPA1 / Fold change vs veh, HNRNPA1 / RFU, RNF170 / Fold change vs veh, RNF170 / RFU, ZNF28 / Fold change vs veh, ZNF28 / RFU, RNGTT / Fold change vs veh, RNGTT / RFU, OGT / Fold change vs veh, OGT / RFU, BRD1 / Fold change vs veh, BRD1 / RFU, MARS / Fold change vs veh, MARS / RFU, ZNF655 / Fold change vs veh, ZNF655 / RFU, FAHD1 / Fold change vs veh, FAHD1 / RFU, BDP1 / Fold change vs veh, BDP1 / RFU, LRRCC1 / Fold change vs veh, LRRCC1 / RFU, ARID1A / Fold change vs veh, ARID1A / RFU, ZNF146 / Fold change vs veh, ZNF146 / RFU, ZNF330 / Fold change vs veh, ZNF330 / RFU, GPN3 / Fold change vs veh, GPN3 / RFU, C9orf123 / Fold change vs veh, C9orf123 / RFU, N4BP2L2 / Fold change vs veh, N4BP2L2 / RFU, ARFIP1 / Fold change vs veh, ARFIP1 / RFU, FAM179B / Fold change vs veh, FAM179B / RFU, BCL10 / Fold change vs veh, BCL10 / RFU, UHRF1BP1L / Fold change vs veh, UHRF1BP1L / RFU, BET1 / Fold change vs veh, BET1 / RFU, CNOT2 / Fold change vs veh, CNOT2 / RFU, ZNF268 / Fold change vs veh, ZNF268 / Fold change vs veh, ZNF507 / RFU, DGCR2 / Fold change vs veh, DGCR2 / RFU, WDSUB1 / Fold change vs veh, WDSUB1 / Fold change vs veh, HSP90B1 /// MIR3652 / RFU, ADSS / Fold change vs veh, ADSS / RFU, GK / Fold change vs veh, GK / RFU, ZNF148 / Fold change vs veh, ZNF148 / RFU, TAF9 / Fold change vs veh, TAF9 / RFU, SLC1A5 / Fold change vs veh, SLC1A5 / RFU, SLMO2 / Fold change vs veh, SLMO2 / RFU, ABCC4 / Fold change vs veh, ABCC4 / RFU, LOC101060439 /// RAP1B / Fold change vs veh, LOC101060439 /// RAP1B / RFU, RFX7 / Fold change vs veh, RFX7 / RFU, GTPBP10 / Fold change vs veh, GTPBP10 / RFU, CNEP1R1 / Fold change vs veh, CNEP1R1 / RFU, BIVM-ERCC5 /// ERCC5 / Fold change vs veh, BIVM-ERCC5 /// ERCC5 / RFU, ILF3 / Fold change vs veh, ILF3 / RFU 11762660_at / Fold change /veh 11762660_at / RFU VCAN (11757783_s_at) / Fold change /veh VCAN (11757783_s_at) / RFU DDX43 (11728927_at) / Fold change /veh DDX43 (11728927_at) / RFU KRT8 (11758188_x_at) / Fold change /veh KRT8 (11758188_x_at) / RFU NKD1 (11759106_at) / Fold change /veh NKD1 (11759106_at) / RFU SRD5A1 (11742802_a_at) / Fold change /veh SRD5A1 (11742802_a_at) / RFU TPSAB1 /// TPSB2 (11721975_s_at) / Fold change /veh TPSAB1 /// TPSB2 (11721975_s_at) / RFU GSTM3 (11746129_a_at) / Fold change /veh GSTM3 (11746129_a_at) / RFU IL23R (11737362_x_at) / Fold change /veh IL23R (11737362_x_at) / RFU TMEM51 (11727254_a_at) / Fold change /veh TMEM51 (11727254_a_at) / RFU PIWIL2 (11732686_x_at) / Fold change /veh PIWIL2 (11732686_x_at) / RFU ORM1 (11744905_x_at) / Fold change /veh ORM1 (11744905_x_at) / RFU CCDC152 (11743942_at) / Fold change /veh CCDC152 (11743942_at) / RFU ECM1 (11717891_a_at) / Fold change /veh ECM1 (11717891_a_at) / RFU IL23R (11748794_a_at) / Fold change /veh IL23R (11748794_a_at) / RFU TNFAIP8L3 (11732012_x_at) / Fold change /veh TNFAIP8L3 (11732012_x_at) / RFU MBOAT4 (11741988_at) / Fold change /veh MBOAT4 (11741988_at) / RFU 11764193_at / Fold change /veh 11764193_at / RFU TMEM53 (11763286_at) / Fold change /veh TMEM53 (11763286_at) / RFU MAGEB2 (11727129_at) / Fold change /veh MAGEB2 (11727129_at) / RFU TMEM200A (11744735_a_at) / Fold change /veh TMEM200A (11744735_a_at) / RFU CCDC152 (11751479_a_at) / Fold change /veh CCDC152 (11751479_a_at) / RFU FAM211A (11726209_a_at) / Fold change /veh FAM211A (11726209_a_at) / RFU RGS16 (11746705_a_at) / Fold change /veh RGS16 (11746705_a_at) / RFU VCAN (11755009_s_at) / Fold change /veh VCAN (11755009_s_at) / RFU RHOB (11743442_s_at) / Fold change /veh RHOB (11743442_s_at) / RFU RGS16 (11720943_a_at) / Fold change /veh RGS16 (11720943_a_at) / RFU RGS16 (11720944_at) / Fold change /veh RGS16 (11720944_at) / RFU, VPS4B / Fold change vs veh, VPS4B / RFU, CREB1 / Fold change vs veh, CREB1 / RFU, DNAJC13 / Fold change vs veh, DNAJC13 / RFU, GNAQ / Fold change vs veh, GNAQ / RFU, CDK5R1 / Fold change vs veh, CDK5R1 / RFU, ZRANB3 / Fold change vs veh, ZRANB3 / RFU, CUL4A / Fold change vs veh, CUL4A / RFU, CCNY / Fold change vs veh, CCNY / RFU, UFL1 / Fold change vs veh, UFL1 / RFU, COG3 / Fold change vs veh, COG3 / RFU, DIAPH2 / Fold change vs veh, DIAPH2 / RFU, SKA2 / Fold change vs veh, SKA2 / RFU, AFF3 / Fold change vs veh, AFF3 / RFU, LMF1 / Fold change vs veh, LMF1 / RFU, IPO11 / Fold change vs veh, IPO11 / RFU, DFFB / Fold change vs veh, DFFB / RFU, FOXP1 / Fold change vs veh, FOXP1 / RFU, CARD8 / Fold change vs veh, CARD8 / RFU, STRN3 / Fold change vs veh, STRN3 / RFU, ADK / Fold change vs veh, ADK / RFU, RASSF2 / Fold change vs veh, RASSF2 / RFU, WIPF1 / Fold change vs veh, WIPF1 / RFU, LARP1B / Fold change vs veh, LARP1B / RFU, RASA1 / Fold change vs veh, RASA1 / RFU, RB1 / Fold change vs veh, RB1 / RFU, PPFIA1 / Fold change vs veh, PPFIA1 / RFU, MAT2A / Fold change vs veh, MAT2A / RFU, CCT5 / Fold change vs veh, CCT5 / RFU, WDR92 / Fold change vs veh, WDR92 / RFU, CUX1 / Fold change vs veh, CUX1 / RFU, TTC7A / Fold change vs veh, TTC7A / RFU, TMEM135 / Fold change vs veh, TMEM135 / RFU, DEPTOR / Fold change vs veh, DEPTOR / RFU, CPM / Fold change vs veh, CPM / RFU, DNAJB6 / Fold change vs veh, DNAJB6 / RFU, CACNA2D3 / Fold change vs veh, CACNA2D3 / RFU, DTX4 / Fold change vs veh, DTX4 / RFU, TFCP2 / Fold change vs veh, TFCP2 / RFU, GMCL1 /// GMCL1P1 / Fold change vs veh, GMCL1 /// GMCL1P1 / RFU, AEBP2 / Fold change vs veh, AEBP2 / RFU, SNHG1 /// SNORD22 /// SNORD25 /// SNORD26 /// SNORD27 /// SNORD28 /// SNORD29 /// SNORD31 / Fold change vs veh, SNHG1 /// SNORD22 /// SNORD25 /// SNORD26 /// SNORD27 /// SNORD28 /// SNORD29 /// SNORD31 / Fold change (Aza/veh), C12orf56 (ProbeSet 11735607_a_at) / Fold change (ACY-1035/veh), C12orf56 (ProbeSet 11735607_a_at) / Fold change (Aza/veh), FGFR1OP (ProbeSet 11751329_s_at) / Fold change (ACY-1035/veh), FGFR1OP (ProbeSet 11751329_s_at) / Fold change (Aza/veh), VPS36 (ProbeSet 11739960_a_at) / Fold change (ACY-1035/veh), VPS36 (ProbeSet 11739960_a_at) / RFU SYPL1 (11715823_x_at) / Fold change /veh SYPL1 (11715823_x_at) / RFU IGFBP7 (11715501_s_at) / Fold change /veh IGFBP7 (11715501_s_at) / RFU REEP3 (11722064_at) / Fold change /veh REEP3 (11722064_at) / RFU IGLL1 (11728026_x_at) / Fold change /veh IGLL1 (11728026_x_at): dose or concentration left out as unconfirmed. The settings on record: MV-4-11 cells, 48 hours.

For the molecule `Nc1ncn([C@@H]2O[C@H](CO)[C@@H](O)[C@H]2O)c(=O)n1` [azacitidine], the “Fold change /veh IRGQ (11745062_a_at)” value is 1.17.
